# Columns and labels:
# Format in all cases: in vivo
# [1] = tested on: smallflower flatsedge (Cyperus difformis); experiment: Test C flooded paddy test; conditions: for Flatsedge plant response rating: Flooded Paddy, scale 0 to 100, 0 no effect, 100 complete control; for Plant response rating, Flatsedge: flooded paddy test, scale 0 to 100 (0 no effect, 100 complete control)
# Method in brief: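 Ratings come from visual comparison with control plants after 12 to 14 days in the greenhouse. Each species was at the 2-leaf stage when the flooded paddy was treated. Scores run from 0, meaning no effect, to 100, meaning complete control.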
# rice (Oryza saliva) = experiment: Test B preemergence
# Method in brief: (§1)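 Greenhouse test: chemicals are formulated in a surfactant-containing non-phytotoxic solvent and applied either preemergence to planted seeds or postemergence to plants 2 to 18 cm tall. Response is rated visually versus controls after 13 to 15 days, 0 meaning no effect and 100 complete control.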
# [2] = tested on: barnyardgrass (Echinochloa crus-galli); experiment: Test B preemergence
# Method in brief: as §1
# [3] = tested on: crabgrass (Digitaria sanguinalis); experiment: Test B preemergence
# Method in brief: as §1
# [4] = tested on: velvetleaf (Abutilon theophrasti); experiment: Test B preemergence
# Method in brief: as §1
# corn (Zea mays) [5] = experiment: Test B preemergence
# Method in brief: as §1
# [6] = tested on: morning glory (Ipomoea hederacea); experiment: Test B preemergence
# Method in brief: as §1
# [7] = tested on: lambsquarters (Chenopodium album); experiment: Test B preemergence
# Method in brief: as §1
# [8] = tested on: cocklebur (Xanthium strumarium); experiment: Test B preemergence
# Method in brief: as §1
# [9] = tested on: Surinam grass (Brachiaria decumbens); experiment: Test B preemergence
# Method in brief: as §1
# [10] = tested on: pigweed (Amaranthus retroflexus); experiment: Test B preemergence
# Method in brief: as §1
# [11] = tested on: giant foxtail (Setaria faberii); experiment: Test B preemergence
# Method in brief: as §1
# Nightshade = experiment: Test C preemergence; conditions: Rate 500 g/ha, visual evaluation after 12 to 14 days
# [12] = tested on: barnyardgrass (Echinochloa crus-galli); experiment: Test B postemergence; conditions: 13 to 15 days
# Method in brief: as §1
# [13] = tested on: crabgrass (Digitaria sanguinalis); experiment: Test B postemergence; conditions: 13 to 15 days
# Method in brief: as §1
# [14] = tested on: velvetleaf (Abutilon theophrasti); experiment: Test B postemergence; conditions: 13 to 15 days
# Method in brief: as §1
# corn (Zea mays) [15] = experiment: Test B postemergence; conditions: 13 to 15 days
# Method in brief: as §1
# [16] = tested on: morning glory (Ipomoea hederacea); experiment: Test B postemergence; conditions: 13 to 15 days
# Method in brief: as §1
# [17] = tested on: lambsquarters (Chenopodium album); experiment: Test B postemergence; conditions: 13 to 15 days
# Method in brief: as §1
# [18] = tested on: cocklebur (Xanthium strumarium); experiment: Test B postemergence; conditions: 13 to 15 days
# Method in brief: as §1
# [19] = tested on: blackgrass (Alopecurus myosuroides); experiment: Test B postemergence; conditions: 13 to 15 days
# Method in brief: as §1
# [20] = tested on: Surinam grass (Brachiaria decumbens); experiment: Test B postemergence; conditions: 13 to 15 days
# Method in brief: as §1
# [21] = tested on: pigweed (Amaranthus retroflexus); experiment: Test B postemergence; conditions: 13 to 15 days
# Method in brief: as §1
# [22] = tested on: wheat (Triticum aestivum); experiment: Test B postemergence; conditions: 13 to 15 days
# Method in brief: as §1
# [23] = tested on: giant foxtail (Setaria faberii); experiment: Test B postemergence; conditions: 13 to 15 days
# Method in brief: as §1
# wild oat (Avena fatua) = experiment: Test B postemergence; conditions: 13 to 15 days
# Method in brief: as §1
# Sunflower = experiment: Test C preemergence; conditions: Rate 500 g/ha, visual evaluation after 12 to 14 days
# [24] = Preemergence, Rate 500 g/ha, scale 0 to 100, 0 no effect, 100 complete control
# [25] = preemergence, Rate 125 g/ha, scale of 0 to 100 where 0 is no effect and 100 is complete control, 13 to 15 days
# [26] = Rate 125 g/ha, scale 0 (no effect) to 100 (complete control)
# [27] = Rate 500 g/ha, scale 0 to 100, 0 is no effect, 100 is complete control
smiles,measurement,setting,value
CC(C)(C)c1ccn(C2CCN(c3ccc(F)c(Br)c3)C2=O)n1 (stereo not drawn) [Compound 75],Flatsedge plant response rating,[1]; Rate 250 g/ha,100
same,Flatsedge plant response rating,[1]; Rate 500 g/ha,100
same,"Plant response rating, Flatsedge",[1]; Rate 62 g/ha,90
same,"Plant response rating, Flatsedge",[1]; Rate 125 g/ha,90
same,"Plant response rating, Rice",rice (Oryza saliva); [24],70
same,"Plant response rating, Rice",rice (Oryza saliva); [25],50
same,"Plant response rating, Barnyardgrass",[2]; [24],100
same,"Plant response rating, Barnyardgrass",[2]; [25],100
same,"Plant response rating, Crabgrass",[3]; [24],100
same,"Plant response rating, Crabgrass",[3]; [25],100
same,"Plant response rating, Velvetleaf",[4]; [24],70
same,"Plant response rating, Velvetleaf",[4]; [25],50
same,"Plant response rating, Corn",corn (Zea mays) [5]; [24],20
same,"Plant response rating, Corn",corn (Zea mays) [5]; [25],0
same,"Plant response rating, Morningglory",[6]; [24],0
same,"Plant response rating, Morningglory",[6]; [25],0
same,"Plant response rating, Lambsquarters",[7]; [24],100
same,"Plant response rating, Lambsquarters",[7]; [25],100
same,"Plant response rating, Cocklebur",[8]; [24],70
same,"Plant response rating, Cocklebur",[8]; [25],30
same,"Plant response rating, Surinam grass",[9]; [24],100
same,"Plant response rating, Surinam grass",[9]; [25],60
same,"Plant response rating, Pigweed",[10]; [24],100
same,"Plant response rating, Pigweed",[10]; [25],100
same,"Plant response rating, Foxtail, Giant",[11]; [24],100
same,"Plant response rating, Foxtail, Giant",[11]; [25],100
same,"Plant response rating (0 to 100), Nightshade",Nightshade,50
same,"Plant response rating, Barnyardgrass",[12]; [26],0
same,"Plant response rating, Barnyardgrass",[12]; [27],0
same,"Plant response rating, Crabgrass",[13]; [26],0
same,"Plant response rating, Crabgrass",[13]; [27],0
same,"Plant response rating, Velvetleaf",[14]; [26],0
same,"Plant response rating, Velvetleaf",[14]; [27],50
same,"Plant response rating, Corn",corn (Zea mays) [15]; [26],0
same,"Plant response rating, Corn",corn (Zea mays) [15]; [27],0
same,"Plant response rating, Morningglory",[16]; [26],20
same,"Plant response rating, Morningglory",[16]; [27],60
same,"Plant response rating, Lambsquarters",[17]; [26],70
same,"Plant response rating, Lambsquarters",[17]; [27],80
same,"Plant response rating, Cocklebur",[18]; [26],0
same,"Plant response rating, Cocklebur",[18]; [27],0
same,"Plant response rating, Blackgrass",[19]; [26],0
same,"Plant response rating, Blackgrass",[19]; [27],0
same,"Plant response rating, Surinam grass",[20]; [26],0
same,"Plant response rating, Surinam grass",[20]; [27],0
same,"Plant response rating, Pigweed",[21]; [26],50
same,"Plant response rating, Pigweed",[21]; [27],90
same,"Plant response rating, Wheat",[22]; [26],0
same,"Plant response rating, Wheat",[22]; [27],0
same,"Plant response rating, Foxtail, Giant",[23]; [26],0
same,"Plant response rating, Foxtail, Giant",[23]; [27],0
same,"Plant response rating, Wild Oat",wild oat (Avena fatua); [26],0
same,"Plant response rating, Wild Oat",wild oat (Avena fatua); [27],0
same,"Plant response rating (0 to 100), Sunflower",Sunflower,50
CC(C)(C)c1ccn(C2CCN(c3cccc(OC(F)F)c3)C2=O)n1 (stereo not drawn) [Compound 76],Flatsedge plant response rating,[1]; Rate 250 g/ha,90
same,Flatsedge plant response rating,[1]; Rate 500 g/ha,90
same,"Plant response rating, Flatsedge",[1]; Rate 62 g/ha,90
same,"Plant response rating, Flatsedge",[1]; Rate 125 g/ha,90
same,"Plant response rating, Rice",rice (Oryza saliva); [24],90
same,"Plant response rating, Rice",rice (Oryza saliva); [25],70
same,"Plant response rating, Barnyardgrass",[2]; [24],100
same,"Plant response rating, Barnyardgrass",[2]; [25],100
same,"Plant response rating, Crabgrass",[3]; [24],100
same,"Plant response rating, Crabgrass",[3]; [25],100
same,"Plant response rating, Velvetleaf",[4]; [24],0
same,"Plant response rating, Velvetleaf",[4]; [25],0
same,"Plant response rating, Corn",corn (Zea mays) [5]; [24],70
same,"Plant response rating, Corn",corn (Zea mays) [5]; [25],0
same,"Plant response rating, Morningglory",[6]; [24],100
same,"Plant response rating, Morningglory",[6]; [25],0
same,"Plant response rating, Lambsquarters",[7]; [24],100
same,"Plant response rating, Lambsquarters",[7]; [25],100
same,"Plant response rating, Cocklebur",[8]; [24],0
same,"Plant response rating, Cocklebur",[8]; [25],0
same,"Plant response rating, Surinam grass",[9]; [24],100
same,"Plant response rating, Surinam grass",[9]; [25],80
same,"Plant response rating, Pigweed",[10]; [24],100
same,"Plant response rating, Pigweed",[10]; [25],100
same,"Plant response rating, Foxtail, Giant",[11]; [24],100
same,"Plant response rating, Foxtail, Giant",[11]; [25],100
same,"Plant response rating (0 to 100), Nightshade",Nightshade,60
same,"Plant response rating, Barnyardgrass",[12]; [26],0
same,"Plant response rating, Barnyardgrass",[12]; [27],90
same,"Plant response rating, Crabgrass",[13]; [26],0
same,"Plant response rating, Crabgrass",[13]; [27],40
same,"Plant response rating, Velvetleaf",[14]; [26],0
same,"Plant response rating, Velvetleaf",[14]; [27],0
same,"Plant response rating, Corn",corn (Zea mays) [15]; [26],0
same,"Plant response rating, Corn",corn (Zea mays) [15]; [27],0
same,"Plant response rating, Morningglory",[16]; [26],0
same,"Plant response rating, Morningglory",[16]; [27],20
same,"Plant response rating, Lambsquarters",[17]; [26],0
same,"Plant response rating, Lambsquarters",[17]; [27],40
same,"Plant response rating, Cocklebur",[18]; [26],0
same,"Plant response rating, Cocklebur",[18]; [27],20
same,"Plant response rating, Blackgrass",[19]; [26],0
same,"Plant response rating, Blackgrass",[19]; [27],0
same,"Plant response rating, Surinam grass",[20]; [26],0
same,"Plant response rating, Surinam grass",[20]; [27],10
same,"Plant response rating, Pigweed",[21]; [26],30
same,"Plant response rating, Pigweed",[21]; [27],80
same,"Plant response rating, Wheat",[22]; [26],0
same,"Plant response rating, Wheat",[22]; [27],0
same,"Plant response rating, Foxtail, Giant",[23]; [26],0
same,"Plant response rating, Foxtail, Giant",[23]; [27],30
same,"Plant response rating, Wild Oat",wild oat (Avena fatua); [26],0
same,"Plant response rating, Wild Oat",wild oat (Avena fatua); [27],0
same,"Plant response rating (0 to 100), Sunflower",Sunflower,30

# From patent US7138361B2, “Herbicidal heterocycles” (E. I. du Pont de Nemours and Company, priority 2000, dated 2006)
